Source: ChEMBL document CHEMBL1201862, “PubChem BioAssay data set” (2004)
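Protocol summary: plate cells (96-well), add compound at 5 concentrations, incubate 48 h, interpolate endpoints linearly. GI50: concentration for 50% inhibition of growth.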 The source made the active and inactive calls. No stated cut-off is given here; in the data, active = GI50 up to about 1.1 µM and inactive = higher.

How the values were obtained:
Assay in all cases: NCI tumour cell line growth inhibition, 48 h
CAKI-1 = test system: CAKI-1
HCT-116 = test system: HCT-116
DU-145 = test system: DU-145
MDA-MB-231 = test system: MDA-MB-231
HOP-62 = test system: HOP-62
SN12C = test system: SN12C
SF-295 = test system: SF-295
RPMI-8226 = test system: RPMI-8226
Malme-3M = test system: Malme-3M
HT-29 = test system: HT-29
MDA-MB-435 = test system: MDA-MB-435
KM12 = test system: KM12
HOP-92 = test system: HOP-92
CCRF-CEM = test system: CCRF-CEM
NCI-H226 = test system: NCI-H226
COLO 205 = test system: COLO 205
T47D = test system: T47D
MDA-N = test system: MDA-N
SK-MEL-2 = test system: SK-MEL-2
RXF 393 = test system: RXF 393

Compound | GI50 (CAKI-1) | GI50 (HCT-116) | GI50 (DU-145) | GI50 (MDA-MB-231) | GI50 (HOP-62) | GI50 (SN12C) | GI50 (SF-295) | GI50 (RPMI-8226) | GI50 (Malme-3M) | GI50 (HT-29) | GI50 (MDA-MB-435) | GI50 (KM12) | GI50 (HOP-92) | GI50 (CCRF-CEM) | GI50 (NCI-H226) | GI50 (COLO 205) | GI50 (T47D) | GI50 (MDA-N) | GI50 (SK-MEL-2) | GI50 (RXF 393)
COc1ccc(C(c2ccc(OC)cc2)N2C(=O)CCC2C(=O)O)cc1 (stereo not drawn) | > 100 µM (inactive) | > 100 µM (inactive) | > 100 µM (inactive) | > 100 µM (inactive) | > 100 µM (inactive) | > 100 µM (inactive) | > 100 µM (inactive) | > 100 µM (inactive) | > 100 µM (inactive) | > 100 µM (inactive) | > 100 µM (inactive) | > 100 µM (inactive) | > 100 µM (inactive) | > 100 µM (inactive) | > 100 µM (inactive) | > 100 µM (inactive) | > 100 µM (inactive) | > 100 µM (inactive) | > 100 µM (inactive) | –
O=C(O)CCC(=O)c1ccc2sc3ccccc3c2c1 | > 100 µM (inactive) | > 100 µM (inactive) | > 100 µM (inactive) | > 100 µM (inactive) | > 100 µM (inactive) | > 100 µM (inactive) | > 100 µM (inactive) | > 100 µM (inactive) | > 100 µM (inactive) | > 100 µM (inactive) | > 100 µM (inactive) | > 100 µM (inactive) | – | 0.225 µM (active) | > 100 µM (inactive) | > 100 µM (inactive) | > 100 µM (inactive) | > 100 µM (inactive) | > 100 µM (inactive) | > 100 µM (inactive)
O=C(CSc1nc2ccc(I)cc2c(=O)n1Cc1ccccc1)Nc1ccc(Br)cc1 | 1.35 µM (inactive) | 88.5 µM (inactive) | 70.5 µM (inactive) | 17.2 µM (inactive) | 78.2 µM (inactive) | 37.2 µM (inactive) | 35.6 µM (inactive) | > 100 µM (inactive) | 16.6 µM (inactive) | > 100 µM (inactive) | > 100 µM (inactive) | 78.7 µM (inactive) | 60.3 µM (inactive) | > 100 µM (inactive) | 25.9 µM (inactive) | 59.4 µM (inactive) | 97.9 µM (inactive) | – | 64.1 µM (inactive) | 43.9 µM (inactive)
CC1(C)Oc2ccc(Cl)cc2C12CC2 | 15.6 µM (inactive) | 14.7 µM (inactive) | 15.8 µM (inactive) | 16.6 µM (inactive) | 18.2 µM (inactive) | 18.8 µM (inactive) | 14 µM (inactive) | 16.1 µM (inactive) | 23.4 µM (inactive) | 17.6 µM (inactive) | 15.5 µM (inactive) | 17.7 µM (inactive) | – | 22.7 µM (inactive) | 13.6 µM (inactive) | 14 µM (inactive) | 22.6 µM (inactive) | 17.8 µM (inactive) | 16 µM (inactive) | 15.6 µM (inactive)
COC(=O)CCC(C)[C@H]1CCC2C3C(C[C@H](OC(C)=O)[C@@]21C)[C@@]1(C)CCC2(C[C@H]1C[C@H]3OC(C)=O)OOC1(CCC(C(C)(C)C)CC1)OO2 (stereo partly drawn) | 12.8 µM (inactive) | 3.97 µM (inactive) | > 100 µM (inactive) | 46.3 µM (inactive) | 9.73 µM (inactive) | 58.2 µM (inactive) | 7.53 µM (inactive) | 3.91 µM (inactive) | 64.3 µM (inactive) | > 100 µM (inactive) | 56 µM (inactive) | 14.1 µM (inactive) | 6.59 µM (inactive) | 5.5 µM (inactive) | 59 µM (inactive) | > 100 µM (inactive) | 5.71 µM (inactive) | – | > 100 µM (inactive) | > 100 µM (inactive)
O=[N+]([O-])c1nccn1CC1OC(n2ccnc2[N+](=O)[O-])C(O)C(O)C1O (stereo not drawn) | – | > 100 µM (inactive) | – | – | > 100 µM (inactive) | – | – | > 100 µM (inactive) | > 100 µM (inactive) | > 100 µM (inactive) | – | > 100 µM (inactive) | > 100 µM (inactive) | > 100 µM (inactive) | > 100 µM (inactive) | > 100 µM (inactive) | 23.9 µM (inactive) | > 100 µM (inactive) | > 100 µM (inactive) | > 100 µM (inactive)
CCOP(=O)(OCC)Oc1c(OC)c2[nH]c(C(=O)OC)cc2c2c(C(=O)O)c[nH]c12 | > 100 µM (inactive) | > 100 µM (inactive) | > 100 µM (inactive) | > 100 µM (inactive) | > 100 µM (inactive) | > 100 µM (inactive) | > 100 µM (inactive) | – | > 100 µM (inactive) | > 100 µM (inactive) | > 100 µM (inactive) | 28.6 µM (inactive) | > 100 µM (inactive) | > 100 µM (inactive) | – | > 100 µM (inactive) | > 100 µM (inactive) | > 100 µM (inactive) | > 100 µM (inactive) | > 100 µM (inactive)
CC(C)(C)n1[nH]c(=O)n(C(C)(C)C)c1=O | > 100 µM (inactive) | > 100 µM (inactive) | > 100 µM (inactive) | > 100 µM (inactive) | – | > 100 µM (inactive) | > 100 µM (inactive) | > 100 µM (inactive) | – | – | > 100 µM (inactive) | > 100 µM (inactive) | > 100 µM (inactive) | > 10 µM (inactive) | – | > 100 µM (inactive) | > 100 µM (inactive) | > 100 µM (inactive) | > 100 µM (inactive) | > 100 µM (inactive)
